Laboratory results as given in ChEMBL document CHEMBL1150093, “Santolindiacetylene, a polyacetylene derivative isolated from the essential oil of Santolina canescens” (J Nat Prod, 1995).
≈ marks a conversion by molar mass, not a printed value.

Legend:
[1] = tested on: Radical scavenging activity; test: Antioxidant activity assessed as DPPH radical scavenging activity; assay type: functional
[2] = tested on: Rattus norvegicus; test: Antihepatotoxic activity against carbon tetrachloride-induced hepatotoxicity in Wistar rat liver assessed as decrease in hepatic malondialdehyde level at 35 mg/kg, ip administered 24 hrs before carbon tetrachloride intoxication; assay type: functional, organism-based; design: dose 35 mg/kg
[3] = tested on: Rattus norvegicus; test: Antihepatotoxic activity against carbon tetrachloride-induced hepatotoxicity in Wistar rat liver assessed as decrease in hepatic malondialdehyde level at 35 mg/kg, ip administered 24 hrs before carbon tetrachloride intoxication relative to control; assay type: functional, organism-based; design: dose 35 mg/kg; scale not given: the % may be the effect or the level left
[4] = tested on: Rattus norvegicus; test: Antihepatotoxic activity against carbon tetrachloride-induced hepatotoxicity in Wistar rat liver assessed as decrease in serum glutamate pyruvate transaminase level at 35 mg/kg, ip administered 24 hrs before carbon tetrachloride intoxication; assay type: functional, organism-based; design: dose 35 mg/kg
[5] = tested on: Rattus norvegicus; test: Antihepatotoxic activity against carbon tetrachloride-induced hepatotoxicity in Wistar rat liver assessed as decrease in serum glutamate pyruvate transaminase level at 35 mg/kg, ip administered 24 hrs before carbon tetrachloride intoxication relative to control; assay type: functional, organism-based; design: dose 35 mg/kg; scale not given: the % may be the effect or the level left
[6] = tested on: Rattus norvegicus; test: Antihepatotoxic activity against carbon tetrachloride-induced hepatotoxicity in Wistar rat liver assessed as decrease in serum glutamate pyruvate transaminase level at 7 mg/kg, ip administered 24 hrs before carbon tetrachloride intoxication relative to control; assay type: functional; design: scale not given: the % may be the effect or the level left; conditions: route intraperitoneal
[7] = tested on: Rattus norvegicus; test: Antihepatotoxic activity against carbon tetrachloride-induced -induced hepatotoxicity in Wistar rat liver assessed as decrease in hepatic malondialdehyde level at 7 mg/kg, ip administered 24 hrs before carbon tetrachloride intoxication relative to control; assay type: functional; design: scale not given: the % may be the effect or the level left; conditions: route intraperitoneal
[8] = tested on: Rattus norvegicus; test: Antihepatotoxic activity against carbon tetrachloride-induced hepatotoxicity in Wistar rat assessed as decrease in serum glutamate pyruvate transaminase level at 7 mg/kg, ip administered 24 hrs before carbon tetrachloride intoxication; assay type: functional; conditions: route intraperitoneal
[9] = tested on: Rattus norvegicus; test: Antihepatotoxic activity against carbon tetrachloride-induced hepatotoxicity in Wistar rat liver assessed as decrease in hepatic malondialdehyde level at 7 mg/kg, ip administered 24 hrs before carbon tetrachloride intoxication; assay type: functional; conditions: route intraperitoneal

`C=C1C=CC(C(C)C)CC1` (stereo not drawn) [BETA-PHELLANDRENE] was tested, and the EC50 [1] was 127.7 mg/mL (≈ 937 mM).
`CC12CCC(CC1=O)C2(C)C` (centres undefined) [CAMPHOR] was tested, and the EC50 [1] was 2.4 mg/mL (≈ 15.8 mM).
`CC1=CCC(C(C)C)=CC1` [GAMMA-TERPINENE] gave an EC50 [1] of 22 mg/mL (≈ 161 mM).
For `C=C(C)C1CC=C(C)C(=O)C1` (centres undefined) [CARVONE], the EC50 [1] was 11.7 mg/mL (≈ 77.9 mM).
Compound `CC1=CCC(O)(C(C)C)CC1` (centres undefined) [TERPINEOL] has an EC50 [1] of 53.7 mg/mL (≈ 348 mM).
Compound `CC1=CCC2CC1C2(C)C` (stereo not drawn) [ALPHA-PINENE] has an EC50 [1] of 330.6 mg/mL (≈ 2430 mM).
`CC1(C)C2CCC1(C)C(O)C2` (centres undefined) [BORNEOL] was tested, and the EC50 [1] was 2.4 mg/mL (≈ 15.6 mM).
`O=C1O[C@H]([C@@H](O)CO)C(O)=C1O` gave an Activity [1] of 2.7 µg/mL.
Compound `C=CC(=C)CCC=C(C)C` [MYRCENE] has an EC50 [1] of 248 mg/mL (≈ 1820 mM).
Work on `C=C1CCC2CC1C2(C)C` (stereo not drawn) [BETA-PINENE] yielded an EC50 [1] of 220.1 mg/mL (≈ 1620 mM).
`C=C1CCC2(C(C)C)CC12` (centres undefined) [SABINENE] gave an EC50 [1] of 232.7 mg/mL (≈ 1710 mM).
SILYMARIN was tested, and the Activity [2] was 0.2 nmol/mL, the Activity [1] was 24.6 µg/mL and the Activity [3] was 36.6%. It also gave an Activity [4] of 27.9 IU/L and an Activity [5] of 23.7%.
`C=C1CC/C=C(/C)CC[C@@H]2[C@@H]1CC2(C)C` [CARYOPHYLLENE] gave an EC50 [1] of 0.0037 mg/mL (≈ 0.0181 mM).
In the case of `CC1=CC[C@@H](C(C)(C)O)CC1` [ALPHA-TERPINEOL], the EC50 [1] is reported as 0.1463 mg/mL (≈ 0.948 mM).
`CC#CC#CCc1ccc2ccccc2c1` [SANTOLINDIACETYLENE] gave an Activity [6] of 19.8%, an Activity [7] of 33.3% and an Activity [8] of 23.3 IU/L. It also gave an Activity [1] of 1.7 µg/mL and an Activity [9] of 0.182 nmol/mL.
With `Cc1ccc(C(C)C)cc1` [P-CYMENE] the EC50 [1] was 408 mg/mL (≈ 3040 mM).
